Measured values from publication PMC2858264 (Biochemistry, 2010).

Biological target: T1, rR-HPCDH1 (Xanthobacter versatilis, UniProt Q56840)
T1 sequence (Q56840 2-250): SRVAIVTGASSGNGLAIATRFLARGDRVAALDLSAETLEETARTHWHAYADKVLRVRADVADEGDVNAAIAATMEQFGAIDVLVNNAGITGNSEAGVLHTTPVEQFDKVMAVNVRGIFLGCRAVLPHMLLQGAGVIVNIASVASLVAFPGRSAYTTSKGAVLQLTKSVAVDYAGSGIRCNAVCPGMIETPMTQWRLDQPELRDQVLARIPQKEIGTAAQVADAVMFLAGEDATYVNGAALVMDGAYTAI
Test: NADH absorbance at […] nm, initial rates
Format: biochemical

Ki: 290 ± 14 µM
SMILES: CC(C)(O)CSCCS(=O)(=O)O [M-HPC, 2-(2-methyl-2-hydroxypropylthio)ethanesulfonate]
